This note sets out measurements from patent US10975101B2, “Ultra-potent vinca alkaloids: added molecular complexity further disrupts the tublin dimer-dimer interface” (priority 2016, dated 2021).

pIC50: −log10 of the molar value. Like-named read-outs stand apart in the source and are kept apart here.

The subject of assay [1] is HCT116 (human colorectal carcinoma) cells. Put plainly: cells. It counts as cell-based. The conditions noted are these: read-out: IC50, HCT116. How it is done:
(§1) Compounds were tested for their cell growth inhibition of L1210 (ATCC no. CCL-219, mouse lymphocytic leukemia) cells, HCT116 (ATCC no. CCL-247, human colorectal carcinoma) cells, and HCT116/VM46 (a vinblastine-resistant strain of HCT116) cells in culture. A population of cells (>1×10^6 cells/mL as determined with a hemocytometer) was diluted with an appropriate amount of Dulbecco's Modified Eagle Medium (DMEM, Gibco) containing 10% fetal bovine serum (FBS, Gibco) to a final concentration of 30000 cells/mL.
(§2) To each well of a 96-well plate (Corning Costar), 100 μL of the cell media solution was added with a multichannel pipet. The cultures were incubated at 37° C. in an atmosphere of 5% CO2 and 95% humidified air for 24 hours. The test compounds were added to the plate as follows: test substances were diluted in DMSO to a concentration of 1 mM and 10-fold serial dilutions were performed on a separate 96-well plate. Fresh culture medium (100 μL) was added to each well of cells to constitute 200 μL of medium per well followed by 2 μL of each test agent. Compounds were tested in duplicate (n=2-18 times) at six concentrations between 0-1000 nM or 0-10000 nM. Following addition, cultures were incubated for an additional 72 hours.
(§3) A phosphatase assay was used to establish the IC50 values as follows: the media in each cell was removed and 100 μL of phosphatase solution (100 mg phosphatase substrate in 30 mL of 0.1 M NaOAc, pH 5.5, 0.1% Triton X-100 buffer) was added to each well. The plates were incubated at 37° C. for either 5 minutes (L1210) or 15 minutes (HCT116 and HCT116/VM46). After the given incubation time, 50 μL of 0.1 N NaOH was added to each well and the absorption at 405 nm was determined using a 96 well plate reader. As the absorption is directly proportional to the number of living cells, the IC50 values were calculated and the reported values represent of the average of 4-36 determinations (SD±10%).

For assay [2], the system named is HCT116/VM46 (a vinblastine-resistant strain of HCT116) cells. As to the kind of experiment: Cell growth inhibition assay, HCT116/VM46. It counts as cell-based, human. The conditions noted are these: 72 hours incubation, phosphatase assay, Pgp-overexpressing resistant line. How it is done: as §1, §2, §3
Assay [3] relates to L1210 (mouse lymphocytic leukemia) cells. Put plainly: Cell growth inhibition assay, L1210. It counts as cell-based. The conditions noted are these: 72 hours incubation, phosphatase assay. How it is done: as §1, §2, §3
The mark [4] stands for this setting: 72 hours incubation, phosphatase assay.

With `CC[C@]1(NC(=O)N2Cc3ccc(NC(=O)c4ccc(OC(F)(F)F)cc4)cc3C2)C[C@H]2CN(CCc3c([nH]c4ccccc34)[C@@](C(=O)OC)(c3cc4c(cc3OC)N(C)[C@H]3[C@@](O)(C(=O)OC)[C@H](OC(C)=O)[C@]5(CC)C=CCN6CC[C@]43[C@@H]65)C2)C1` [Compound 52], the pIC50 in assay [1] (setting [4]) was 8.28; in assay [2] it was 7.12; in assay [3], 8.37.

As to `CC[C@]1(NC(=O)N2CCC(N(C)C)C2)C[C@H]2CN(CCc3c([nH]c4ccccc34)[C@@](C(=O)OC)(c3cc4c(cc3OC)N(C)[C@H]3[C@@](O)(C(=O)OC)[C@H](OC(C)=O)[C@]5(CC)C=CCN6CC[C@]43[C@@H]65)C2)C1` (single isomer, unassigned) [Compound 10], the pIC50 in assay [1] (setting [4]) was 7.70; in assay [2], 6.30; in assay [3], 7.70.

On to `CC[C@]1(NC(=O)N2CCC(N(C)C)C2)C[C@H]2CN(CCc3c([nH]c4ccccc34)[C@@](C(=O)OC)(c3cc4c(cc3OC)N(C)[C@H]3[C@@](O)(C(=O)OC)[C@H](OC(C)=O)[C@]5(CC)C=CCN6CC[C@]43[C@@H]65)C2)C1` (single isomer, unassigned) [Compound 11], for which the pIC50 in assay [1] (setting [4]) is 8.21; in assay [2] it was 6.41; in assay [3], 7.85.

Regarding `CC[C@]1(NC(=O)N2Cc3ccc(F)cc3C2)C[C@H]2CN(CCc3c([nH]c4ccccc34)[C@@](C(=O)OC)(c3cc4c(cc3OC)N(C)[C@H]3[C@@](O)(C(=O)OC)[C@H](OC(C)=O)[C@]5(CC)C=CCN6CC[C@]43[C@@H]65)C2)C1` [Compound 31], the negative-log IC50 (pIC50) in assay [1] (setting [4]) is 9.28; in assay [2], 8.28; in assay [3], 9.20.

In the case of `CC[C@]1(NC(=O)N2CCc3ccccc3CC2)C[C@H]2CN(CCc3c([nH]c4ccccc34)[C@@](C(=O)OC)(c3cc4c(cc3OC)N(C)[C@H]3[C@@](O)(C(=O)OC)[C@H](OC(C)=O)[C@]5(CC)C=CCN6CC[C@]43[C@@H]65)C2)C1` [Compound 27], the pIC50 in assay [1] (setting [4]) was 9.16; in assay [2] it was 8.21; in assay [3], 9.23.

Turning to `CCC1(NC(=O)N2CCC(OC)C2)CC2CN(CCc3c([nH]c4ccccc34)C(C(=O)OC)(c3cc4c(cc3OC)N(C)C3C(O)(C(=O)OC)C(OC(C)=O)C5(CC)C=CCN6CCC43C65)C2)C1` (mixture of isomers) [Compound 16], the pIC50 was 9.00 in assay [1] (setting [4]), 7.60 in assay [2] and 8.48 in assay [3].

`CCC1(NC(=O)N2Cc3cc(OC)c(OC)cc3C2)C[C@H]2CN(CCc3c([nH]c4ccccc34)[C@@](C(=O)OC)(c3cc4c(cc3OC)N(C)[C@H]3C(O)(C(=O)OC)[C@H](OC(C)=O)[C@]5(CC)C=CCN6CC[C@]43[C@@H]65)C2)C1` (stereo partly drawn) [Compound 54]: the pIC50 in assay [1] (Homo sapiens, HCT-116, 72 h) was 9.35; in assay [2] (Homo sapiens, HCT-116/VM46), 8.28; in assay [3] (Mus musculus, L1210), 9.38.

Consider `CC[C@]1(NC(=O)N2Cc3ccc(NC(=O)C=C(C)C)cc3C2)C[C@H]2CN(CCc3c([nH]c4ccccc34)[C@@](C(=O)OC)(c3cc4c(cc3OC)N(C)[C@H]3[C@@](O)(C(=O)OC)[C@H](OC(C)=O)[C@]5(CC)C=CCN6CC[C@]43[C@@H]65)C2)C1` [Compound 48], for which the negative logarithm of the IC50 (pIC50) is 9.33 in assay [1] (setting [4]), 8.13 in assay [2] and 9.37 in assay [3].

Consider `CC[C@]1(NC(=O)N2Cc3ccc(NC(=O)C(C)(C)C)cc3C2)C[C@H]2CN(CCc3c([nH]c4ccccc34)[C@@](C(=O)OC)(c3cc4c(cc3OC)N(C)[C@H]3[C@@](O)(C(=O)OC)[C@H](OC(C)=O)[C@]5(CC)C=CCN6CC[C@]43[C@@H]65)C2)C1` [Compound 44], for which the pIC50 in assay [1] (setting [4]) is 9.33; in assay [2] it was 8.28; in assay [3], 9.41.

As for `CC[C@]1(NC(=O)N2Cc3ccc(NC(=O)c4cncnc4)cc3C2)C[C@H]2CN(CCc3c([nH]c4ccccc34)[C@@](C(=O)OC)(c3cc4c(cc3OC)N(C)[C@H]3[C@@](O)(C(=O)OC)[C@H](OC(C)=O)[C@]5(CC)C=CCN6CC[C@]43[C@@H]65)C2)C1` [Compound 59], the pIC50 in assay [1] (setting [4]) was 9.22; in assay [2] it was 8.06; in assay [3] it was 9.29.

Consider `CC[C@]1(NC(=O)N2CCC(C#N)C2)C[C@H]2CN(CCc3c([nH]c4ccccc34)[C@@](C(=O)OC)(c3cc4c(cc3OC)N(C)[C@H]3[C@@](O)(C(=O)OC)[C@H](OC(C)=O)[C@]5(CC)C=CCN6CC[C@]43[C@@H]65)C2)C1` (single isomer, unassigned) [Compound 21], for which the figures for the negative-log IC50 (pIC50) in assay [1] (setting [4]), in assay [2] and in assay [3] were 8.74, 7.22 and 8.29, respectively.

Turning to `CC[C@]1(NC(=O)N2Cc3ccc(NC(=O)c4ccnnc4)cc3C2)C[C@H]2CN(CCc3c([nH]c4ccccc34)[C@@](C(=O)OC)(c3cc4c(cc3OC)N(C)[C@H]3[C@@](O)(C(=O)OC)[C@H](OC(C)=O)[C@]5(CC)C=CCN6CC[C@]43[C@@H]65)C2)C1` [Compound 62], the pIC50 in assay [1] (setting [4]) is 9.19; in assay [2], 7.30; in assay [3] it was 9.16.

Regarding `CC[C@]1(NC(=O)N2CCC(F)C2)C[C@H]2CN(CCc3c([nH]c4ccccc34)[C@@](C(=O)OC)(c3cc4c(cc3OC)N(C)[C@H]3[C@@](O)(C(=O)OC)[C@H](OC(C)=O)[C@]5(CC)C=CCN6CC[C@]43[C@@H]65)C2)C1` (single isomer, unassigned) [Compound 18], the pIC50 in assay [1] (setting [4]) is 9.21; in assay [2] it was 7.70; in assay [3], 9.22.

As to `CCC(=O)Nc1ccc2c(c1)CN(C(=O)N[C@@]1(CC)C[C@H]3CN(CCc4c([nH]c5ccccc45)[C@@](C(=O)OC)(c4cc5c(cc4OC)N(C)[C@H]4[C@@](O)(C(=O)OC)[C@H](OC(C)=O)[C@]6(CC)C=CCN7CC[C@]54[C@@H]76)C3)C1)C2` [Compound 41], the values for the pIC50 in assay [1] (setting [4]), in assay [2] and in assay [3] were 9.27, 8.11 and 9.34, respectively.

Turning to `CCC1(NC(=O)N2CCC(Br)C2)CC2CN(CCc3c([nH]c4ccccc34)C(C(=O)OC)(c3cc4c(cc3OC)N(C)C3C(O)(C(=O)OC)C(OC(C)=O)C5(CC)C=CCN6CCC43C65)C2)C1` (mixture of isomers) [Compound 19], the pIC50 in assay [1] (setting [4]) is 9.05; in assay [2] it was 7.60; in assay [3], 8.51.

As to `CC[C@]1(NC(=O)N2Cc3ccc(NC(=O)c4ccncc4)cc3C2)C[C@H]2CN(CCc3c([nH]c4ccccc34)[C@@](C(=O)OC)(c3cc4c(cc3OC)N(C)[C@H]3[C@@](O)(C(=O)OC)[C@H](OC(C)=O)[C@]5(CC)C=CCN6CC[C@]43[C@@H]65)C2)C1` [Compound 57], the negative-log IC50 (pIC50) in assay [1] (setting [4]) was 9.55; in assay [2], 7.98; in assay [3], 9.57.

Consider `C=CC(=O)Nc1ccc2c(c1)CN(C(=O)N[C@@]1(CC)C[C@H]3CN(CCc4c([nH]c5ccccc45)[C@@](C(=O)OC)(c4cc5c(cc4OC)N(C)[C@H]4[C@@](O)(C(=O)OC)[C@H](OC(C)=O)[C@]6(CC)C=CCN7CC[C@]54[C@@H]76)C3)C1)C2` [Compound 46], for which the negative logarithm of the IC50 (pIC50) was 9.52 in assay [1] (setting [4]), 8.15 in assay [2] and 9.42 in assay [3].

For `CC[C@]1(NC(=O)N2CCCCCCC2)C[C@H]2CN(CCc3c([nH]c4ccccc34)[C@@](C(=O)OC)(c3cc4c(cc3OC)N(C)[C@H]3[C@@](O)(C(=O)OC)[C@H](OC(C)=O)[C@]5(CC)C=CCN6CC[C@]43[C@@H]65)C2)C1` [Compound 25], the pIC50 in assay [1] (setting [4]) was 7.46; in assay [2] it was 6.48; in assay [3], 7.22.

`CCCNc1ccc2c(c1)CN(C(=O)N[C@@]1(CC)C[C@H]3CN(CCc4c([nH]c5ccccc45)[C@@](C(=O)OC)(c4cc5c(cc4OC)N(C)[C@H]4[C@@](O)(C(=O)OC)[C@H](OC(C)=O)[C@]6(CC)C=CCN7CC[C@]54[C@@H]76)C3)C1)C2` [Compound 39]: the negative logarithm of the IC50 (pIC50) in assay [1] (setting [4]) was 9.51; in assay [2], 8.34; in assay [3], 9.40.

On to `CC[C@]1(NC(=O)N2C3CCC2CC3)C[C@H]2CN(CCc3c([nH]c4ccccc34)[C@@](C(=O)OC)(c3cc4c(cc3OC)N(C)[C@H]3[C@@](O)(C(=O)OC)[C@H](OC(C)=O)[C@]5(CC)C=CCN6CC[C@]43[C@@H]65)C2)C1` [Compound 26], for which the pIC50 in assay [1] (setting [4]) was 7.70; in assay [2] it was 6.60; in assay [3], 7.40.

Regarding `CC[C@]1(NC(=O)N2Cc3ccc(NC(=O)c4ccc(-c5ccccc5)cc4)cc3C2)C[C@H]2CN(CCc3c([nH]c4ccccc34)[C@@](C(=O)OC)(c3cc4c(cc3OC)N(C)[C@H]3[C@@](O)(C(=O)OC)[C@H](OC(C)=O)[C@]5(CC)C=CCN6CC[C@]43[C@@H]65)C2)C1` [Compound 51], the negative-log IC50 (pIC50) in assay [1] (setting [4]) was 8.20; in assay [2], 7.12; in assay [3], 8.23.

For orientation: pIC50 means the IC50 on a negative log10 scale, so that one unit is a factor of ten.
